Measured values: patent US20090074791A1, “Phenylisoquinoline and Phenylquinazoline Derivatives” (priority 2007, published 2009)

Target: T1, human PCaR (parathyroid Calcium receptor) (Homo sapiens, UniProt P41180)
T1 construct: expressed in transfected cells; host or cells: CCL39 fibroblasts (stably transfected)
T1 sequence (P41180 20-1078): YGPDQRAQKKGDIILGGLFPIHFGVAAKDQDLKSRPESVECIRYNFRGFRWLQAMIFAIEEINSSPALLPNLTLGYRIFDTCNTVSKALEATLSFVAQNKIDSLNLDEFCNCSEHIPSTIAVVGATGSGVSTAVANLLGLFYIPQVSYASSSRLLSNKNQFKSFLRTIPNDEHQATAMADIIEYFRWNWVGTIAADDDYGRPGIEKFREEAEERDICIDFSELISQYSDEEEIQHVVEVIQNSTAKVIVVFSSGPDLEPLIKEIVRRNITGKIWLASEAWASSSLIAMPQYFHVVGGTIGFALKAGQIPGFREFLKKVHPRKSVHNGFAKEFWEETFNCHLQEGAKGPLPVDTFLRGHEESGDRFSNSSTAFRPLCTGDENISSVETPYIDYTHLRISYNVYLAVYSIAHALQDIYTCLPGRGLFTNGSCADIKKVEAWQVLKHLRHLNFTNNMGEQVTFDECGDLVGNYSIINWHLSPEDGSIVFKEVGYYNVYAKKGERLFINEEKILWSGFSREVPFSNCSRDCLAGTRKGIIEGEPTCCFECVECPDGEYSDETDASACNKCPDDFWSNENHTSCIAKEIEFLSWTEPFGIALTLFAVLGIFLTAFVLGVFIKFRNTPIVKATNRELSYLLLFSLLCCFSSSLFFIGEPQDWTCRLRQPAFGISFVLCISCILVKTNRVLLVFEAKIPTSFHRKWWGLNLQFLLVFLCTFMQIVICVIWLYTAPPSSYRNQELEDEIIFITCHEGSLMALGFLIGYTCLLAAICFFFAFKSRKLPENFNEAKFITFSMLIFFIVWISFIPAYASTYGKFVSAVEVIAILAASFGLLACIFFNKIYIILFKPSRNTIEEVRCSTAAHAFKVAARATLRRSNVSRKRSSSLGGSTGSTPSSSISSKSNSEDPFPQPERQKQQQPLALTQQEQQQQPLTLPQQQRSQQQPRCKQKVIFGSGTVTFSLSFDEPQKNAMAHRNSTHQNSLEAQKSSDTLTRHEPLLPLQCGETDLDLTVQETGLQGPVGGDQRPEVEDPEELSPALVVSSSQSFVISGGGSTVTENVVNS
Test: Intracellular free calcium assay: inhibition of calcium transients stimulated by extracellular calcium (antagonism at PCaR)
Format: cell-based
Settings: CCL39 fibroblasts stably transfected with human PCaR; Fluo-3 AM; stimulated with calcium (2.5 mM final)
Method: A suitable and well validated assay to measure the anabolic effect on bone formation is the assay to detect intracellular free calcium, i.e. the method to determine antagonism at the parathyroid Calcium receptor (PCaR) consists in measuring the inhibition of intracellular calcium transients stimulated by extracellular calcium:
CCL39 fibroblasts stably transfected with human PCaR are seeded at 40'000 cells/well into 96-well Viewplates and incubated for 24 hours. Medium is then removed and replaced with fresh medium containing 2 μM Fluo-3 AM (Molecular Probes, Leiden, The Netherlands), In routine experiments, cells are incubated at 37° C., 5% CO2 for 1 h. Afterwards, plates are washed twice with mHBS and wells are refilled with 100 μl mHBS containing the test compounds. Incubation is continued at room temperature for 15 minutes. To record changes of intracellular free calcium, plates are transferred to fluorescence-imaging plate reader (Molecular Devices, Sunnyvale, Calif., USA). A baseline consisting in 5 measurements of 0.4 seconds each (laser excitation 488 nm) is recorded. Cells are then stimulated with calcium (2.5 mM final), and fluorescence changes recorded over a period of 3 minutes.

Row | SMILES | IC50
1 | C#CCOc1ccc2nc(-c3nc4cc(C(=O)CCC)c(C)cc4n3C)nc(-c3ccc(C(C)C)cc3)c2c1 [Example 1, 1-{2-[4-(4-Isopropyl-phenyl)-6-prop-2-ynyloxy-quinazolin-2-yl]-1,6-dimethyl-1H-benzoimidazol-5-yl}-butan-1-one] | 0.26 nM
2 | C#CCOc1ccc2nc(-c3nc4ccc(C#N)cc4[nH]3)nc(-c3ccc(C(C)C)cc3)c2c1 [Example 3, 2-[4-(4-Isopropyl-phenyl)-6-prop-2-ynyloxy-quinazolin-2-yl]-3H-benzoimidazole-5-carbonitrile] | 0.93 nM
3 | C#CCOc1ccc2nc(-c3nc4ccc(C(F)(F)F)cc4[nH]3)nc(-c3ccc(C(C)C)cc3)c2c1 [Example 14, 4-(4-Isopropyl-phenyl)-6-prop-2-ynyloxy-2-(6-trifluoromethyl-1H-benzoimidazol-2-yl)-quinazoline] | 0.95 nM
4 | C#CCOc1ccc2nc(-c3nc4ccc(OC)cc4[nH]3)nc(-c3ccc(C(C)C)cc3)c2c1 [Example 15, 4-(4-Isopropyl-phenyl)-2-(6-methoxy-1H-benzoimidazol-2-yl)-6-prop-2-ynyloxy-quinazoline] | 0.96 nM
5 | C#CCOc1ccc2nc(-c3nc4ccc(Cl)cc4[nH]3)nc(-c3ccc(C(C)C)cc3)c2c1 [Example 16, 2-(6-Chloro-1H-benzoimidazol-2-yl)-4-(4-isopropyl-phenyl)-6-prop-2-ynyloxy-quinazoline] | 0.53 nM
6 | C#CCOc1ccc2nc(-c3nc4ccc(C(=O)OCC)cc4[nH]3)nc(-c3ccc(C(C)C)cc3)c2c1 [Example 17, 2-[4-(4-Isopropyl-phenyl)-6-prop-2-ynyloxy-quinazolin-2-yl]-3H-benzoimidazole-5-carboxylic acid ethyl ester] | 0.74 nM
7 | C#CCOc1ccc2nc(-c3nc4ccc(C(=O)c5ccccc5)cc4[nH]3)nc(-c3ccc(C(C)C)cc3)c2c1 [Example 18, {2-[4-(4-isopropyl-phenyl)-6-prop-2-ynyloxy-quinazolin-2-yl]-3H-benzoimidazol-5-yl}phenyl-methanone] | 0.68 nM
8 | C#CCOc1ccc2nc(-c3nc4ccc(Br)cc4[nH]3)nc(-c3ccc(C(C)C)cc3)c2c1 [Example 19, 2-(6-Bromo-1H-benzoimidazol-2-yl)-4-(4-isopropyl-phenyl)-6-prop-2-ynyloxy-quinazoline] | 0.88 nM
9 | C#CCOc1ccc2nc(-c3nc4ccc(F)cc4[nH]3)nc(-c3ccc(C(C)C)cc3)c2c1 [Example 20, 2-(6-Fluoro-1H-benzoimidazol-2-yl)-4-(4-isopropyl-phenyl)-6-prop-2-ynyloxy-quinazoline] | 1.6 nM
10 | C#CCOc1ccc2nc(-c3nc4cc(F)c(Cl)cc4[nH]3)nc(-c3ccc(C(C)C)cc3)c2c1 [Example 21, 2-(6-Chloro-5-fluoro-1H-benzoimidazol-2-yl)-4-(4-isopropyl-phenyl)-6-prop-2-ynyloxy-quinazoline] | 1.4 nM
11 | C#CCOc1ccc2nc(-c3nc4cc(F)c(F)cc4[nH]3)nc(-c3ccc(C(C)C)cc3)c2c1 [Example 25, 2-(5,6-Difluoro-1H-benzoimidazol-2-yl)-4-(4-isopropyl-phenyl)-6-prop-2-ynyloxy-quinazoline] | 0.44 nM
12 | C#CCOc1ccc2nc(-c3nc4cccc(C(C)=O)c4[nH]3)nc(-c3ccc(C(C)C)cc3)c2c1 [Example 26, 1-{2-[4-(4-Isopropyl-phenyl)-6-prop-2-ynyloxy-quinazolin-2-yl]-3H-benzoimidazol-4-yl}-ethanone] | 0.59 nM

Further lines, results first:

Row | IC50 | SMILES
13 | 1.1 nM | C#CCOc1ccc2nc(-c3nc4cc(F)ccc4n3C)nc(-c3ccc(C(C)C)cc3)c2c1 [Example 5, 2-(5-Fluoro-1-methyl-1H-benzoimidazol-2-yl)-4-(4-isopropyl-phenyl)-6-prop-2-ynyloxy-quinazoline]
14 | 0.7 nM | C#CCOc1ccc2nc(-c3nc4cc(OC)ccc4n3C)nc(-c3ccc(C(C)C)cc3)c2c1 [Example 6, 4-(4-Isopropyl-phenyl)-2-(5-methoxy-1-methyl-1H-benzoimidazol-2-yl)-6-prop-2-ynyloxy-quinazoline]
15 | 1.5 nM | C#CCOc1ccc2nc(-c3nc4ccccc4n3C)nc(-c3ccc(C(C)C)cc3)c2c1 [Example 8, 4-(4-Isopropyl-phenyl)-2-(1-methyl-1H-benzoimidazol-2-yl)-6-prop-2-ynyloxy-quinazoline]
16 | 0.63 nM | C#CCOc1ccc2nc(-c3nc4cc(C(F)(F)F)ccc4n3C)nc(-c3ccc(C(C)C)cc3)c2c1 [Example 22, 4-(4-Isopropyl-phenyl)-2-(1-methyl-5-trifluoromethyl-1H-benzoimidazol-2-yl)-6-prop-2-ynyloxy-quinazoline]
17 | 0.4 nM | C#CCOc1ccc2nc(-c3nc4cc(C(=O)OCC)ccc4n3C)nc(-c3ccc(C(C)C)cc3)c2c1 [Example 23, 2-[4-(4-Isopropyl-phenyl)-6-prop-2-ynyloxy-quinazolin-2-yl]-1-methyl-1H-benzoimidazole-5-carboxylic acid ethyl ester]
18 | 1 nM | C#CCOc1ccc2nc(-c3nc4cc(C(C)=O)ccc4n3C)nc(-c3ccc(C(C)C)cc3)c2c1 [Example 24, 1-{2-[4-(4-Isopropyl-phenyl)-6-prop-2-ynyloxy-quinazolin-2-yl]-1-methyl-1H-benzoimidazol-5-yl}ethanone]
19 | 0.65 nM | C#CCOc1ccc2nc(-c3nc4ccc(C(=O)OCC)cc4n3C)nc(-c3ccc(C(C)C)cc3)c2c1 [Example 36, 2-[4-(4-Isopropyl-phenyl)-6-prop-2-ynyloxy-quinazolin-2-yl]-3-methyl-3H-benzoimidazole-5-carboxylic acid ethyl ester]
